Measurements from patent publication US8754115B2, “Fungicidal pyrazoles” (E I du Pont de Nemours and Company, priority 2010, dated 2014).
Marks after values point to notes of the source that are not given here.

Assays:
Format in all cases: in vivo
[1] = system: Botrytis cinerea; test: Test A: preventive spray on tomato seedlings, visual disease rating (tomato Botrytis)
Source text: (§1) General protocol for preparing test suspensions for Tests A-F: the test compounds were first dissolved in acetone in an amount equal to 3% of the final volume and then suspended at the desired concentration (in ppm) in acetone and purified water (50/50 mix by volume) containing 250 ppm of the surfactant Trem® 014 (polyhydric alcohol esters). The resulting test suspensions were then used in Tests A-F. Spraying a 200 ppm test suspension to the point of run-off on the test plants was the equivalent of a rate of 800 g/ha. Unless otherwise indicated, the rating values indicate a 200 ppm test suspension was used. (An asterisk “*” next to the rating value indicates a 40 ppm test suspension was used.)
(§2) The test suspension was sprayed to the point of run-off on tomato seedlings. The following day the seedlings were inoculated with a spore suspension of Botrytis cinerea (the causal agent of tomato Botrytis) and incubated in saturated atmosphere at 20° C. for 48 h, and then moved to a growth chamber at 24° C. for 3 days, after which time visual disease ratings were made.
(§3) Results for Tests A-F are given in Table A. In the Table, a rating of 100 indicates 100% disease control and a rating of 0 indicates no disease control (relative to the controls). A dash (-) indicates no test results. An asterisk “*” next to the rating value indicates a 40 ppm test suspension was used.

[2] = system: Puccinia recondite f. sp. tritici; test: Test E2: preventive spray on wheat seedlings, visual disease rating (wheat leaf rust)
Source text: as §1
The test suspension was sprayed to the point of run-off on wheat seedlings. The following day the seedlings were inoculated with a spore suspension of Puccinia recondite f. sp. tritici (the causal agent of wheat leaf rust) and incubated in a saturated atmosphere at 20° C. for 24 h, and then moved to a growth chamber at 20° C. for 7 days, after which time visual disease ratings were made.
as §3

[3] = system: Blumeria graminis f. sp. tritici; test: Test F: preventive spray on wheat seedlings, visual disease rating (wheat powdery mildew)
Source text: as §1
The test suspension was sprayed to the point of run-off on wheat seedlings. The following day the seedlings were inoculated with a spore dust of Blumeria graminis f. sp. tritici, (also known as Erysiphe graminis f. sp. tritici, the causal agent of wheat powdery mildew) and incubated in a growth chamber at 20° C. for 8 days, after which time visual disease ratings were made.
as §3

[4] = system: Septoria tritici; test: Test D: preventive spray on wheat seedlings, visual disease rating (wheat leaf blotch)
Source text: as §1
as §2, with “wheat” for “tomato”, “Septoria tritici” for “Botrytis cinerea”, “wheat leaf blotch)” for “tomato Botrytis)”, “24°” for “20°”, “20°” for “24°”, “19” for “3”
as §3

[5] = asterisk: 40 ppm test suspension
[6] = no asterisk: standard test suspension, not 40 ppm, 100 = 100% disease control, 0 = none
[7] = no asterisk: standard test suspension, not 40 ppm

Structure (SMILES) | Test A rating (% disease control) [1, 5] | Test E2 rating (% disease control) [2, 5] | Test F rating (% disease control) [3, 5] | Test D rating (% disease control) [4, 5] | Test A rating (% disease control) [1, 6] | Test E2 rating (% disease control) [2, 7] | Test F rating (% disease control) [3, 7] | Test D rating (% disease control) [4, 7]
COc1nn(C)c(-c2c(F)cccc2F)c1C(O)c1c(F)ccc(F)c1Cl (stereo not drawn) [compound 139] | 83* % | 80* % | 96* % | 100* % |  |  |  | 
Cc1nn(C)c(-c2c(F)cccc2F)c1C(OCC#N)c1ccc(F)cc1Cl (stereo not drawn) [Compound 107] | 9* % | 99* % | 99* % | 99* % |  |  |  | 
Cc1nn(C)c(-c2c(F)cc(Br)cc2F)c1C(O)c1ccc(F)cc1F (stereo not drawn) [compound 106] |  |  |  |  | 98% | 97% | 0% | 100%
Cc1nn(C)c(-c2c(F)cccc2Cl)c1C(SC#N)c1c(F)cc(F)cc1F (stereo not drawn) [Compound 123] | 87* % | 99* % | 90* % | 100* % |  |  |  | 
Cc1nn(C)c(-c2c(F)cncc2F)c1C(O)c1ccc(F)cc1Cl (stereo not drawn) [compound 166] | 99* % | 99* % | 93* % | 100* % |  |  |  | 
COc1cc(F)c(-c2c(C(O)c3ccc(F)cc3F)c(C)nn2C)c(F)c1 (stereo not drawn) [compound 172] | 99* % | 100* % | 100* % | 100* % |  |  |  | 
CCOc1nn(C)c(-c2c(F)cccc2F)c1C(O)c1ccc(F)cc1Cl (stereo not drawn) [compound 127] |  |  |  |  | 76% | 91% | 99% | 100%
Cc1cc(F)ccc1C(O)c1c(C)nn(C)c1-n1ccnc1C (stereo not drawn) [compound 147] | 0* % | 17* % | 0* % | 0* % |  |  |  | 
Cc1nn(C)c(-c2c(F)cccc2Br)c1C(O)c1ccc(F)cc1Cl (stereo not drawn) [compound 94] |  |  |  |  | 99% | 100% | 100% | 100%
Cn1nc(Cl)c(C(O)c2ccc(F)cc2Cl)c1-c1c(F)cccc1Cl (stereo not drawn) [compound 135] |  |  |  |  | 100% | 100% | 99% | 100%
Cc1nn(C)c(-c2ccc(F)cc2I)c1C(O)c1ccc(F)cc1Cl (single isomer, unassigned) [compound 103] |  |  |  |  | 99% | 96% | 95% | 98%
COc1nn(C)c(-c2c(F)cccc2F)c1C(O)c1ccc(F)cc1Cl (stereo not drawn) [compound 126] |  |  |  |  | 100% | 100% | 100% | 100%
COc1nn(C)c(-c2c(F)cc(F)cc2F)c1C(O)c1ccc(F)cc1Cl (stereo not drawn) [compound 152] | 100* % | 100* % | 100* % | 100* % |  |  |  | 
Cc1cc(F)ccc1C(O)c1c(C)nn(C)c1-n1ccnc1Cl (stereo not drawn) [compound 150] |  |  |  |  | 8% | 9% | 0% | 0%
C=CCOC(c1ccc(F)cc1Cl)c1c(C)nn(C)c1-c1c(F)cccc1F (stereo not drawn) [Compound 109] | 0* % | 98* % | 97* % | 100* % |  |  |  | 
Cn1nc(Cl)c(C(O)c2ccc(F)cc2F)c1-c1c(F)cccc1Cl (stereo not drawn) [compound 133] |  |  |  |  | 100% | 100% | 99% | 100%
COc1nn(C)c(-c2c(F)cc(Cl)cc2F)c1C(O)c1ccc(F)cc1Cl (stereo not drawn) [compound 162] | 99* % | 86* % | 64* % | 100* % |  |  |  | 

Structure (SMILES) | Test A rating (% disease control) [1, 5] | Test E2 rating (% disease control) [2, 5] | Test F rating (% disease control) [3, 5] | Test D rating (% disease control) [4, 5] | Test A rating (% disease control) [1, 6] | Test E2 rating (% disease control) [2, 7] | Test F rating (% disease control) [3, 7] | Test D rating (% disease control) [4, 7]
Cc1cc(F)ccc1C(O)c1c(Br)nn(C)c1-c1c(F)cccc1Cl (stereo not drawn) [compound 149] |  |  |  |  | 100% | 100% | 100% | 100%
CC(=O)OC(c1ccc(F)cc1Cl)c1c(C)nn(C)c1-c1c(F)cccc1F (stereo not drawn) [Compound 108] | 99* % | 100* % | 100* % | 100* % |  |  |  | 
Cc1nn(C)c(-c2ccc(F)cc2Cl)c1C(O)c1ccc(F)cc1I (stereo not drawn) [compound 99] |  |  |  |  | 97% | 100% | 99% | 100%
Cc1nn(C)c(-c2c(F)cccc2F)c1C(SC#N)c1ccc(F)cc1Cl (stereo not drawn) [Compound 111] |  |  |  |  | 100% | 100% | 100% | 100%
Cc1nn(C)c(-c2c(F)cccc2Br)c1C(=O)c1ccc(F)cc1Cl [compound 93] |  |  |  |  | 90% | 91% | 100% | 7%
COc1nn(C)c(-c2c(F)cc(F)cc2F)c1C(O)c1ccccc1F (stereo not drawn) [compound 154] |  |  |  |  | 100% | 100% | 100% | 100%
COc1nn(C)c(-c2c(F)cc(F)cc2F)c1C(O)c1c(F)cccc1Cl (stereo not drawn) [compound 155] | 99* % | 100* % | 99* % | 100* % |  |  |  | 
Cc1nn(C)c(-c2c(F)cccc2F)c1C(SC#N)c1c(F)cc(F)cc1F (stereo not drawn) [Compound 116] | 0* % | 9* % | 0* % | 78* % |  |  |  | 
Cc1nn(C)c(-c2c(Cl)cncc2Cl)c1C(O)c1ccc(F)cc1Cl (stereo not drawn) [compound 98] | 94* % | 100* % | 100* % | 100* % |  |  |  | 
Cn1nc(Cl)c(C(O)c2ccc(F)cc2Cl)c1-c1c(F)cccc1F (stereo not drawn) [compound 137] |  |  |  |  | 100% | 100% | 100% | 100%
Cc1nn(C)c(-c2c(F)cccc2F)c1C(SC#N)c1ccc(F)cc1F (stereo not drawn) [Compound 115] | 88* % | 94* % | 99* % | 100* % |  |  |  | 
COCOC(c1ccc(F)cc1Cl)c1c(C)nn(C)c1-c1c(F)cccc1F (stereo not drawn) [Compound 110] | 0* % | 98* % | 99* % | 100* % |  |  |  | 
Cc1nn(C)c(-c2ccc(F)cc2)c1C(O)c1ccc(F)cc1Cl (stereo not drawn) [compound 105] | 0* % | 98* % | 81* % | 100* % |  |  |  | 
Cc1nn(C)c(-n2ccnc2Cl)c1C(O)c1ccc(F)cc1F (stereo not drawn) [compound 151] |  |  |  |  | 16% | 99% | 43% | 0%
Cc1nn(C)c(-c2c(F)cc(Br)cc2F)c1C(=O)c1ccc(F)cc1F [compound 102] |  |  |  |  | 0% | 55% | 97% | 0%
Cn1nc(Cl)c(C(O)c2ccc(F)cc2Br)c1-c1c(F)cccc1F (stereo not drawn) [compound 136] |  |  |  |  | 100% | 100% | 100% | 100%
